In patent US10065972B2, “Bicyclic or tricyclic heterocyclic compound” (MITSUBISHI TANABE PHARMA CORPORATION, priority 2014, dated 2018):

The compounds below were run against human recombinant KAT-II (Homo sapiens (Human), UniProt Q8N5Z0) (assay: KAT-II inhibitory test). Details: 3.0 μmol/L kynurenine, 37° C., 1 hr, pH 8.0; kynurenic acid quantified by HPLC.
Format: biochemical
Method in brief: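 Kynurenic acid formation was measured by HPLC fluorescence (354 nm excitation, 460 nm emission) against an external standard curve. The substrate was 3.0 μmol/L kynurenine with 10 μmol/L pyridoxal phosphate, at pH 8.0 Tris-acetate, 37 °C for 1 hr, using 2.0 ng/μL amylose-purified N-terminal His/MBP-tagged recombinant enzyme. Duplicate measurements were made per concentration.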

human recombinant KAT-II, sequence (Q8N5Z0 30-425): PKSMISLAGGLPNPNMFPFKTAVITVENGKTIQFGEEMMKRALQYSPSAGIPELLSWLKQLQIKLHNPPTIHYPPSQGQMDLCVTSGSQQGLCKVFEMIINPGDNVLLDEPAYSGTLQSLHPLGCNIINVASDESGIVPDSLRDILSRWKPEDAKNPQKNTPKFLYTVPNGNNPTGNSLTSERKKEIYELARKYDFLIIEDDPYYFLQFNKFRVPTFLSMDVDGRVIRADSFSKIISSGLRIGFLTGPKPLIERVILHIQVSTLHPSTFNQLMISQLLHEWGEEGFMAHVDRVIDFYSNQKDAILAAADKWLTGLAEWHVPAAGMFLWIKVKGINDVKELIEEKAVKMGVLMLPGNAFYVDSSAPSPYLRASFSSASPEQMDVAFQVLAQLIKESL

IC50 [nM]	SMILES
29	CCc1nc2sc(N3CCC[C@@H]3C(=O)NCc3ccc(Cl)cc3Cl)nn2c(=O)c1F [Example 688, (R)-N-(2,4-dichlorobenzyl)-1-(7-ethyl-6-fluoro-5-oxo-5H-[1,3,4]thiadiazolo[3,2-a]pyrimidin-2-yl)pyrrolidine-2-carboxamide]
1100	O=C(NCc1ccccc1)[C@H]1CCCN1c1nc2c(=O)[nH]c(OCC(F)(F)F)nc2s1 [Example 555, (R)-N-benzyl-1-[7-oxo-5-(2,2,2-trifluoroethoxy)-6,7-dihydro[1,3]thiazolo[5,4-d]pyrimidin-2-yl]pyrrolidine-2-carboxamide]
73	Cc1nn(C2CCCCC2)c(=O)c2nc(N3CCC[C@@H]3C(=O)NCc3ccccc3)sc12 [Example 616, (R)-N-benzyl-1-(5-cyclohexyl-7-methyl-4-oxo-4,5-dihydro[1,3]thiazolo[4,5-d]pyridazin-2-yl)pyrrolidine-2-carboxamide]
680	Cn1c(C(F)(F)F)nc2ccc(N3CCC[C@@H]3C(=O)NCc3ccccc3)nc2c1=O [Example 707, (R)-N-benzyl-1-(3-methyl-4-oxo-2-trifluoromethyl-3,4-dihydropyrido[3,2-d]pyrimidin-6-yl)pyrrolidine-2-carboxamide]
16	CCn1nc(C2CC2)c2sc(N3CCC[C@@H]3C(=O)NCc3ccccc3)nc2c1=O [Example 614, (R)-N-benzyl-1-(7-cyclopropyl-5-ethyl-4-oxo-4,5-dihydro[1,3]thiazolo[4,5-d]pyridazin-2-yl)pyrrolidine-2-carboxamide]
6.9	O=C(NCc1ccccc1)[C@H]1CCCN1c1nc2c(=O)[nH]c(C(F)(F)F)nc2s1 [Example 536, (R)-N-benzyl-1-(7-oxo-5-trifluoromethyl-6,7-dihydro[1,3]thiazolo[5,4-d]pyrimidin-2-yl)pyrrolidine-2-carboxamide]
110	CCc1nc2ccc(N3CCC[C@@H]3C(=O)NCc3ccccc3)nc2c(=O)n1C [Example 703, (R)-N-benzyl-1-(2-ethyl-3-methyl-4-oxo-3,4-dihydropyrido[3,2-d]pyrimidin-6-yl)pyrrolidine-2-carboxamide]
550	CC(C)c1cc(=O)n2nc(N3CCC[C@@H]3C(=O)NCc3ccccc3)ccc2n1 [Example 720, (R)-N-benzyl-1-[4-oxo-2-(propan-2-yl)-4H-pyrimido[1,2-b]pyridazin-7-yl]pyrrolidine-2-carboxamide]
29	O=C(NCc1ccccc1)[C@H]1CCCN1c1nn2c(=O)cc(-c3ccccc3)nc2s1 [Example 638, (R)-N-benzyl-1-(5-oxo-7-phenyl-5H-[1,3,4]thiadiazolo[3,2-a]pyrimidin-2-yl)pyrrolidine-2-carboxamide]
19	O=C(NCc1ccccc1)[C@H]1CCCN1c1nc2c(=O)[nH]c(C(F)(F)CCS(=O)(=O)c3ccccc3)nc2s1 [Example 530, (R)-N-benzyl-1-[5-(3-benzenesulfonyl-1,1-difluoropropyl)-7-oxo-6,7-dihydro-[1,3]thiazolo[5,4-d]pyrimidin-2-yl]pyrrolidine-2-carboxamide]
1500	Cc1cc(=O)n2nc(N3CCC[C@@H]3C(=O)NC(C)(C)c3ccccc3)sc2n1 [Example 636, (R)-1-(7-methyl-5-oxo-5H-[1,3,4]thiadiazolo[3,2-a]pyrimidin-2-yl)-N-(1-methyl-1-phenylethyl)pyrrolidine-2-carboxamide]

Further lines, the compound ahead of its results:

SMILES	IC50 [nM]
CN(Cc1nc2sc(N3CCC[C@@H]3C(=O)NCc3ccccc3)nc2c(=O)n1C)CC(F)(F)F [Example 333, (R)-N-benzyl-1-[6-methyl-5-{[N′-methyl-N′-(2,2,2-trifluoroethyl)amino]methyl}-7-oxo-6,7-dihydro[1,3]thiazolo[5,4-d]pyrimidin-2-yl]pyrrolidine-2-carboxamide]	49
Cn1c(-c2ccccn2)nc2sc(N3CCC[C@@H]3C(=O)NCc3ccccc3)nc2c1=O [Example 194, (R)-N-benzyl-1-[6-methyl-7-oxo-5-(pyridin-2-yl)-6,7-dihydro-[1,3]thiazolo[5,4-d]pyrimidin-2-yl]pyrrolidine-2-carboxamide]	76
CC(C)Nc1nc2sc(N3CCC[C@@H]3C(=O)NCc3ccccc3)nc2c(=O)n1C [Example 341, (R)-N-benzyl-1-{6-methyl-7-oxo-5-[(propan-2-yl)amino]-6,7-dihydro[1,3]thiazolo[5,4-d]pyrimidin-2-yl}pyrrolidine-2-carboxamide]	11
C[C@H](c1nc2c(=O)[nH]c(C3(Cl)CC3)nc2s1)N(C)C(=O)Oc1ccccc1 [Example 85, N-{(R)-1-[5-(1-chlorocyclopropyl)-7-oxo-6,7-dihydro[1,3]thiazolo[5,4-d]pyrimidin-2-yl]ethyl}-N-methylcarbamic acid phenyl ester]	170
CC(C)c1cc(=O)n2nc([C@H]3CCCN3C(=O)Cc3ccccc3)sc2n1 [Example 142, 2-[(R)-1-(phenylacetyl)pyrrolidin-2-yl]-7-(propan-2-yl)-5H-[1,3,4]thiadiazolo[3,2-a]pyrimidin-5-one]	980
CN(C)CCCn1c(C(F)(F)F)nc2sc(N3CCC[C@@H]3C(=O)NCc3ccccc3)nc2c1=O [Example 294, (R)-N-benzyl-1-{6-[3-(N′,N′-dimethylamino)propyl]-7-oxo-5-trifluoromethyl-6,7-dihydro-[1,3]thiazolo[5,4-d]pyrimidin-2-yl}pyrrolidine-2-carboxamide]	170
CN1CCC(n2c(C(F)(F)F)nc3sc(N4CCC[C@@H]4C(=O)NCc4ccccc4)nc3c2=O)CC1 [Example 264, (R)-N-benzyl-1-[6-(1-methylpiperidin-4-yl)-7-oxo-5-trifluoromethyl-6,7-dihydro-[1,3]thiazolo[5,4-d]pyrimidin-2-yl]pyrrolidine-2-carboxamide]	160
O=C(NCc1ccccc1)[C@H]1CCCN1c1nc2c(=O)n(C3CCCC3)cnc2s1 [Example 238, (R)-N-benzyl-1-(6-cyclopentyl-7-oxo-6,7-dihydro-[1,3]thiazolo[5,4-d]pyrimidin-2-yl)pyrrolidine-2-carboxamide]	16
Cc1cccc(OC(=O)N2CCCN2c2nc3c(=O)[nH]c(C(C)(C)F)nc3s2)c1 [Example 132, 2-[5-(2-fluoropropan-2-yl)-7-oxo-6,7-dihydro[1,3]thiazolo[5,4-d]pyrimidin-2-yl]pyrazolidine-1-carboxylic acid 3-methylphenyl ester]	51
O=C(Oc1ccccc1)N1CCC[C@@H]1c1nc2c(=O)[nH]c(C3(CF)CC3)nc2s1 [Example 80, (R)-2-{5-[1-(fluoromethyl)cyclopropyl]-7-oxo-6,7-dihydro[1,3]thiazolo[5,4-d]pyrimidin-2-yl}pyrrolidine-1-carboxylic acid phenyl ester]	8.6
CN(C)c1nc2sc(N3CCC[C@@H]3C(=O)NCc3ccccc3)nc2c(=O)n1C [Example 335, (R)-N-benzyl-1-[5-(N′,N′-dimethylamino)-6-methyl-7-oxo-6,7-dihydro[1,3]thiazolo[5,4-d]pyrimidin-2-yl]pyrrolidine-2-carboxamide]	5.6
CCc1nc2sc([C@H]3CCCN3C(=O)Oc3ccccc3)nc2c(=O)n1C [Example 28, (R)-2-(5-ethyl-6-methyl-7-oxo-6,7-dihydro[1,3]thiazolo[5,4-d]pyrimidin-2-yl)pyrrolidine-1-carboxylic acid phenyl ester]	25
CCn1c(C(F)F)nc2sc(N3CCC[C@@H]3C(=O)N[C@@H](c3ccccc3)C(F)(F)F)nc2c1=O [Example 301, (R)-1-(5-difluoromethyl-6-ethyl-7-oxo-6,7-dihydro-[1,3]thiazolo[5,4-d]pyrimidin-2-yl)pyrrolidine-N-((S)-2,2,2-trifluoro-1-phenylethyl)-2-carboxamide]	2600
CCc1nc2sc(N3CCC[C@@H]3C(=O)NCc3cccc(F)c3)nc2c(=O)n1C [Example 183, (R)-1-(5-ethyl-6-methyl-7-oxo-6,7-dihydro-[1,3]thiazolo[5,4-d]pyrimidin-2-yl)-N-(3-fluorobenzyl)pyrrolidine-2-carboxamide]	32
CCc1nc2sc([C@H]3CCCN3C(=O)N[C@H](C)c3ccccc3)nc2c(=O)n1C [Example 17, (R)-2-(5-ethyl-6-methyl-7-oxo-6,7-dihydro[1,3]thiazolo[5,4-d]pyrimidin-2-yl)-N-((R)-1-phenylethyl)pyrrolidine-1-carboxamide]	1600
CCc1nc2sc([C@H]3CCCN3C(=O)Oc3ccccc3)nc2c(=O)n1Cc1ccc(OC)cc1OC [Example 111, (R)-2-[6-(2,4-dimethoxybenzyl)-5-ethyl-7-oxo-6,7-dihydro[1,3]thiazolo[5,4-d]pyrimidin-2-yl]pyrrolidine-1-carboxylic acid phenyl ester]	270
CCc1nc2sc([C@H]3CCCN3C(=O)NC(C)(C)c3ccccc3)nc2c(=O)n1C [Example 15, (R)-2-(5-ethyl-6-methyl-7-oxo-6,7-dihydro[1,3]thiazolo[5,4-d]pyrimidin-2-yl)-N-(1-methyl-1-phenylethyl)pyrrolidine-1-carboxamide]	1100
Cn1c(C2CCOCC2)nc2sc(N3CCC[C@@H]3C(=O)NCc3ccccc3)nc2c1=O [Example 259, (R)-N-benzyl-1-[6-methyl-7-oxo-5-(tetrahydro-2H-pyran-4-yl)-6,7-dihydro[1,3]thiazolo[5,4-d]pyrimidin-2-yl]pyrrolidine-2-carboxamide]	4.3
CC(C)c1cc(=O)n2nc([C@H]3CCCN3C(=O)NC3(c4ccccc4)CC3)sc2n1 [Example 167, (R)-N-(1-phenylcyclopropyl)-2-[5-oxo-7-(propan-2-yl)-5H-[1,3,4]thiadiazolo[3,2-a]pyrimidin-2-yl]pyrrolidine-1-carboxamide]	90
O=C(NCc1ccccc1)[C@H]1CCCN1c1nc2c(=O)n(CCO)c(C(F)(F)F)nc2s1 [Example 396, (R)-N-benzyl-1-[6-(2-hydroxyethyl)-7-oxo-5-trifluoromethyl-6,7-dihydro[1,3]thiazolo[5,4-d]pyrimidin-2-yl]pyrrolidine-2-carboxamide]	76
